PubChem BioAssay (NCI)
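GI50 is the concentration that inhibits growth by half. At the TGI there is no net growth.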

Experiments:
Assay in all cases: NCI tumour cell line growth inhibition, 384-well format
EKVX NSCLC = tested on: EKVX NSCLC
RXF 393 renal = tested on: RXF 393 renal
HCC-2998 colon = tested on: HCC-2998 colon
OVCAR-5 ovarian = tested on: OVCAR-5 ovarian
786-0 renal = tested on: 786-0 renal
HL-60(TB) leukemia = tested on: HL-60(TB) leukemia
SK-MEL-28 melanoma = tested on: SK-MEL-28 melanoma
NCI/ADR-RES ovarian = tested on: NCI/ADR-RES ovarian
HOP-62 NSCLC = tested on: HOP-62 NSCLC
MDA-MB-468 breast = tested on: MDA-MB-468 breast
BT-549 breast = tested on: BT-549 breast
CAKI-1 renal = tested on: CAKI-1 renal
UO-31 renal = tested on: UO-31 renal
UACC-257 melanoma = tested on: UACC-257 melanoma
HOP-92 NSCLC = tested on: HOP-92 NSCLC
HCT-15 colon = tested on: HCT-15 colon
HS 578T breast = tested on: HS 578T breast
M14 melanoma = tested on: M14 melanoma
SNB-19 CNS = tested on: SNB-19 CNS
NCI-H322M lung = tested on: NCI-H322M lung
OVCAR-4 ovarian = tested on: OVCAR-4 ovarian
SK-OV-3 ovarian = tested on: SK-OV-3 ovarian
CCRF-CEM leukemia = tested on: CCRF-CEM leukemia
HT29 colon = tested on: HT29 colon
SNB-75 CNS = tested on: SNB-75 CNS
DU-145 prostate = tested on: DU-145 prostate
TK-10 renal = tested on: TK-10 renal
NCI-H23 lung = tested on: NCI-H23 lung
MALME-3M melanoma = tested on: MALME-3M melanoma
A498 renal = tested on: A498 renal
IGROV1 ovarian = tested on: IGROV1 ovarian
SW-620 colon = tested on: SW-620 colon
RPMI-8226 leukemia = tested on: RPMI-8226 leukemia
MDA-MB-231 breast = tested on: MDA-MB-231 breast
KM12 colon = tested on: KM12 colon
SK-MEL-2 melanoma = tested on: SK-MEL-2 melanoma
PC-3 prostate = tested on: PC-3 prostate
MDA-MB-435 melanoma = tested on: MDA-MB-435 melanoma
UACC-62 melanoma = tested on: UACC-62 melanoma
HCT-116 colon = tested on: HCT-116 colon
NCI-H226 lung = tested on: NCI-H226 lung
SF-539 CNS = tested on: SF-539 CNS
OVCAR-3 ovarian = tested on: OVCAR-3 ovarian
OVCAR-8 ovarian = tested on: OVCAR-8 ovarian
MCF7 breast = tested on: MCF7 breast
MOLT-4 leukemia = tested on: MOLT-4 leukemia
NCI-H460 NSCLC = tested on: NCI-H460 NSCLC

`C[C@H](NC(=O)c1c(N)nn2cccnc12)c1cc2cccc(C#Cc3cnn(C)c3)c2c(=O)n1-c1ccccc1` gave a GI50 (EKVX NSCLC) of 2600 nM, a TGI (EKVX NSCLC) of 15.3 µM and a GI50 (RXF 393 renal) of 1300 nM. For the same molecule, the TGI (RXF 393 renal) was 5.68 µM, the GI50 (HCC-2998 colon) was 3.75 µM and the TGI (HCC-2998 colon) was 15.1 µM. It also gave a GI50 (OVCAR-5 ovarian) of 8.39 µM, a TGI (OVCAR-5 ovarian) of 22.2 µM and a GI50 (786-0 renal) of 4.91 µM. For the same molecule, the TGI (786-0 renal) was 17.2 µM, the GI50 (HL-60(TB) leukemia) was 1150 nM and the TGI (HL-60(TB) leukemia) was 4.94 µM. The GI50 (SK-MEL-28 melanoma) was 4.42 µM, the TGI (SK-MEL-28 melanoma) was 17.8 µM and the GI50 (NCI/ADR-RES ovarian) was 5.28 µM. The TGI (NCI/ADR-RES ovarian) was 16.2 µM, the GI50 (HOP-62 NSCLC) was 7.24 µM and the TGI (HOP-62 NSCLC) was 20.4 µM. The GI50 (MDA-MB-468 breast) was 507 nM, the TGI (MDA-MB-468 breast) was 3.34 µM and the GI50 (BT-549 breast) was 1480 nM. For the same molecule, the TGI (BT-549 breast) was 9.11 µM, the GI50 (CAKI-1 renal) was 1280 nM and the TGI (CAKI-1 renal) was 15.7 µM. The GI50 (UO-31 renal) was 3.18 µM, the TGI (UO-31 renal) was 14.1 µM and the GI50 (UACC-257 melanoma) was 8.67 µM. The TGI (UACC-257 melanoma) was 22.7 µM, the GI50 (HOP-92 NSCLC) was 470 nM and the TGI (HOP-92 NSCLC) was 4.04 µM. The GI50 (HCT-15 colon) was 5.88 µM, the TGI (HCT-15 colon) was 18.7 µM and the GI50 (HS 578T breast) was 846 nM. The TGI (HS 578T breast) was 6.01 µM, the GI50 (M14 melanoma) was 11.1 µM and the TGI (M14 melanoma) was 24.9 µM. It also gave a GI50 (SNB-19 CNS) of 13 µM, a TGI (SNB-19 CNS) of 26.5 µM and a GI50 (NCI-H322M lung) of 9.35 µM. For the same molecule, the TGI (NCI-H322M lung) was 23.9 µM, the GI50 (OVCAR-4 ovarian) was 11.9 µM and the TGI (OVCAR-4 ovarian) was 25.4 µM. It also gave a GI50 (SK-OV-3 ovarian) of 2190 nM, a TGI (SK-OV-3 ovarian) of 12.5 µM and a GI50 (CCRF-CEM leukemia) of 54.9 nM. It also gave a TGI (CCRF-CEM leukemia) of 1780 nM, a GI50 (HT29 colon) of 6.3 µM and a TGI (HT29 colon) of 20 µM. It also gave a GI50 (SNB-75 CNS) of 806 nM, a TGI (SNB-75 CNS) of 4.38 µM and a GI50 (DU-145 prostate) of 7.97 µM. The TGI (DU-145 prostate) was 23.8 µM, the GI50 (TK-10 renal) was 3.93 µM and the TGI (TK-10 renal) was 17.3 µM. It also gave a GI50 (NCI-H23 lung) of 4.63 µM, a TGI (NCI-H23 lung) of 18.9 µM and a GI50 (MALME-3M melanoma) of 6.62 µM. For the same molecule, the TGI (MALME-3M melanoma) was 20.5 µM, the GI50 (A498 renal) was 2720 nM and the TGI (A498 renal) was 14.8 µM. The GI50 (IGROV1 ovarian) was 559 nM, the TGI (IGROV1 ovarian) was 2100 nM and the GI50 (SW-620 colon) was 15.3 µM. For the same molecule, the TGI (SW-620 colon) was 28.7 µM, the GI50 (RPMI-8226 leukemia) was 1710 nM and the TGI (RPMI-8226 leukemia) was 3.73 µM. For the same molecule, the GI50 (MDA-MB-231 breast) was 6.03 µM, the TGI (MDA-MB-231 breast) was 18.3 µM and the GI50 (KM12 colon) was 10.3 µM. It also gave a TGI (KM12 colon) of 23.2 µM, a GI50 (SK-MEL-2 melanoma) of 12.4 µM and a TGI (SK-MEL-2 melanoma) of 24.9 µM. The GI50 (PC-3 prostate) was 1840 nM, the TGI (PC-3 prostate) was 12.9 µM and the GI50 (MDA-MB-435 melanoma) was 10.6 µM. It also gave a TGI (MDA-MB-435 melanoma) of 24.1 µM, a GI50 (UACC-62 melanoma) of 1540 nM and a TGI (UACC-62 melanoma) of 12.1 µM. The GI50 (HCT-116 colon) was 6.64 µM, the TGI (HCT-116 colon) was 20 µM and the GI50 (NCI-H226 lung) was 3.95 µM. It also gave a TGI (NCI-H226 lung) of 16.3 µM, a GI50 (SF-539 CNS) of 4.67 µM and a TGI (SF-539 CNS) of 17 µM. For the same molecule, the GI50 (OVCAR-3 ovarian) was 2930 nM, the TGI (OVCAR-3 ovarian) was 14.9 µM and the GI50 (OVCAR-8 ovarian) was 8.07 µM. The TGI (OVCAR-8 ovarian) was 21.3 µM, the GI50 (MCF7 breast) was 1250 nM and the TGI (MCF7 breast) was 6.84 µM. For the same molecule, the GI50 (MOLT-4 leukemia) was 847 nM, the TGI (MOLT-4 leukemia) was 2210 nM and the GI50 (NCI-H460 NSCLC) was 3.71 µM. It also gave a TGI (NCI-H460 NSCLC) of 16.7 µM.
